Results on 20 compounds are retold here after patent publication US20140288044A1, “COMPOSITIONS AND THERAPEUTIC USES OF IKK-RELATED KINASE EPSILON AND TANKBINDING KINASE 1 INHIBITORS” (Alzheimer's Institute of America, Inc., priority 2011, published 2014).

One assay addresses T1, IKKε (Homo sapiens, UniProt Q14164).
T1 construct: His-tag (in-house Sf9 preparation) or GST-tag (purchased Invitrogen preparation); these are alternatives, not both on one protein; host or cells: Sf9 cells
T1 sequence (Q14164 1-716): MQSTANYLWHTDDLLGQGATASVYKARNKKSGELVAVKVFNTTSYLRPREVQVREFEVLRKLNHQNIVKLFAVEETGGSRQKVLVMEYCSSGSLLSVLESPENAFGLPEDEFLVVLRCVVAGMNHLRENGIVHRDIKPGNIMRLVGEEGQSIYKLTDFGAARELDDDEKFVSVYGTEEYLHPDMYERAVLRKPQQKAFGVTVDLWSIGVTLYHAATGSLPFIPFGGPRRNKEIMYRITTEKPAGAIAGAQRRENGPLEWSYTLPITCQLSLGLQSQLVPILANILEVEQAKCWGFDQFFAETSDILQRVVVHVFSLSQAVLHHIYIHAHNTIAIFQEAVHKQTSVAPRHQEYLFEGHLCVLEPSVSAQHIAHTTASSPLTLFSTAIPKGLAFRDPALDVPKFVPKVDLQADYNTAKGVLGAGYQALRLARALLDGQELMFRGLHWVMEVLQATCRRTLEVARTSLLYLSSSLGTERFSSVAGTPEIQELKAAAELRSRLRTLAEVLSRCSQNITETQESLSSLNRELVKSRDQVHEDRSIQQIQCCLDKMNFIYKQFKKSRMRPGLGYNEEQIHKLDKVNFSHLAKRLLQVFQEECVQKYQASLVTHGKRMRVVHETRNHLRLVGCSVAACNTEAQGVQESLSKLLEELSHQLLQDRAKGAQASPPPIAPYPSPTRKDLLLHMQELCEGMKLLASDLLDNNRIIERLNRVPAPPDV
Nature of the assay: In-vitro IKKε kinase assay (radiolabelled ATP, filterplate). The assay is classed as biochemical. An outline of the steps:
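His-tagged IKKε from Sf9 cells or GST-tagged IKKε, with myelin basic protein, casein or dephosphorylated casein as substrate and 32 μM ATP (2× Km) plus [γ^33]ATP. "Normal" assay used 0.1 μg/ml enzyme; "sensitized" used 0.015 μg/ml with dephosphorylated casein only. Stopped after 30–45 min with phosphoric acid; P-81 filter counts normalized to DMSO after background subtraction.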

The subject of assay [1] is IKKε-mediated phosphorylation of IRF3. The assay is described as follows: ELISA for in-situ phosphorylation of IRF3 (phospho-Ser396) in HEK293T cells cotransfected with IRF3 and IKKε. Format: cell-based. Conditions: Homo sapiens, HEK-293T, 20 h, HEK293T cells, 20 hours, read-out: IC50, in-situ IKKε-mediated phosphorylation of IRF3. An outline of the steps: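 HEK293T cells cotransfected with IRF3 and IKKε were treated with compound for 20 h, and lysates were assayed by ELISA for phospho-Ser396 IRF3, normalized to DMSO. Viability was checked in parallel by CellTiter-Glo. For TBK1, cells cotransfected with IRF7 and TBK1 were treated overnight and probed by Western blot for phospho-Ser477/Ser479 IRF7.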

Where [2] appears, read: in-vitro IKKε kinase inhibition assays, given as 0.005 μM (5 nM), read-out: IKKε kinase inhibitory activity (IC50 value).
[3] abbreviates: range given from about 1 μM to about 250 nM.
[4] abbreviates: "sensitized" assay, read-out: IC50, inhibition of the kinase activity of IKKε.

Like-named read-outs stand apart in the source and are kept apart here.

For `CC(=O)N(C)Cc1ccc(Nc2nccc(-c3ccc(OC4CCOCC4)c(C#N)c3)n2)cn1` [Example Compound 53, N-{[5-({4-[3-Cyano-4-(tetrahydro-2H-pyran-4-yloxy)phenyl]pyrimidin-2-yl}amino)pyridin-2-yl]methyl}-N-methylacetamide], the IC50 at IKKε (setting [2]) is less than 5 nM; in assay [1], 100 to 250 nM.
On to `CN(CCS(C)(=O)=O)Cc1ccc(Nc2nccc(-c3ccc(OC4CCOCC4)c(C#N)c3)n2)cn1` [Example Compound 54, 5-(2-{[6-({Methyl[2-(methylsulfonyl)ethyl]amino}methyl)pyridin-3-yl]amino}pyrimidin-4-yl)-2-(tetrahydro-2H-pyran-4-yloxy)benzonitrile], for which the IC50 is less than 5 nM at IKKε (setting [2]) and 100 to 250 nM in assay [1].
As for `C[C@@H](O)C(=O)N(C)Cc1ccc(Nc2nccc(-c3ccc(OC4CCOCC4)c(C#N)c3)n2)cn1` [Example Compound 57, (2R)—N-{[5-({4-[3-Cyano-4-(tetrahydro-2H-pyran-4-yloxy)phenyl]pyrimidin-2-yl}amino)pyridin-2-yl]methyl}-2-hydroxy-N-methylpropanamide], the IC50 at IKKε (setting [2]) was less than 5 nM; in assay [1] (setting [3]) it was 250 to 1000 nM.
On to `CN(Cc1ccc(Nc2nccc(-c3ccc(OC4CCOCC4)c(C#N)c3)n2)cn1)C(=O)CO` [Example Compound 58, N-{[5-({4-[3-Cyano-4-(tetrahydro-2H-pyran-4-yloxy)phenyl]pyrimidin-2-yl}amino)pyridin-2-yl]methyl}-2-hydroxy-N-methylacetamide], for which the values for the IC50 (at IKKε (setting [2]); in assay [1]) were less than 5 nM and 100 to 250 nM, respectively.
As to `CN(Cc1ccc(Nc2nccc(-c3ccc(OC4CCOCC4)c(C#N)c3)n2)cn1)C(=O)C1(O)CC1` [Example Compound 59, N-{[5-({4-[3-Cyano-4-(tetrahydro-2H-pyran-4-yloxy)phenyl]pyrimidin-2-yl}amino)pyridin-2-yl]methyl}-1-hydroxy-N-methylcyclopropanecarboxamide], the IC50 at IKKε (setting [2]) was less than 5 nM; in assay [1] (setting [3]), 250 to 1000 nM.
With `CN(Cc1ccc(Nc2nccc(-c3ccc(OC4CCOCC4)c(C#N)c3)n2)cn1)C(=O)C1(N)CC1` [Example Compound 60, 1-Amino-N-{[5-({4-[3-cyano-4-(tetrahydro-2H-pyran-4-yloxy)phenyl]pyrimidin-2-yl}amino)pyridin-2-yl]methyl}-N-methylcyclopropanecarboxamide], the half-maximal inhibitory concentration (IC50) at IKKε (setting [2]) was less than 5 nM; in assay [1], 100 to 250 nM.
For `CC(c1ccc(Nc2nccc(-c3ccc(OC4CCOCC4)c(C#N)c3)n2)cn1)N1CC(O)C1` (stereo not shown) [Example Compound 63, 5-[2-({6-[1-(3-Hydroxyazetidin-1-yl)ethyl]pyridin-3-yl}amino)pyrimidin-4-yl]-2-(tetrahydro-2H-pyran-4-yloxy)benzonitrile], in that order: less than 5 nM and 100 to 250 nM.
Turning to `N#Cc1cc(-c2ccnc(Nc3ccnc(CN4CC(O)C4)c3)n2)ccc1OC1CCOCC1` [Example Compound 70, 5-[2-({2-[(3-Hydroxyazetidin-1-yl)methyl]pyridin-4-yl}amino)pyrimidin-4-yl]-2-(tetrahydro-2H-pyran-4-yloxy)benzonitrile], the values for the IC50 (on IKKε (setting [2]); in assay [1] (setting [3])) were less than 5 nM and 250 to 1000 nM, respectively.
Take `N#Cc1cc(-c2ccnc(Nc3ccnc(CN4CCC(F)(F)C4)c3)n2)ccc1OC1CCOCC1` [Example Compound 71, 5-[2-({2-[(3,3-Difluoropyrrolidin-1-yl)methyl]pyridin-4-yl}amino)pyrimidin-4-yl]-2-(tetrahydro-2H-pyran-4-yloxy)benzonitrile]: the IC50 was less than 5 nM at IKKε (setting [2]) and less than 100 nM in assay [1].
For `N#Cc1cc(-c2ccnc(Nc3ccc(-n4ccnc4)nc3)n2)ccc1OC1CCOCC1` [Example Compound 75, 5-(2-{[6-(1H-Imidazol-1-yl)pyridin-3-yl]amino}pyrimidin-4-yl)-2-(tetrahydro-2H-pyran-4-yloxy)benzonitrile], in that order: less than 5 nM and less than 100 nM.
`N#Cc1cc(-c2ccnc(Nc3ccc(-n4cncn4)nc3)n2)ccc1OC1CCOCC1` [Example Compound 76, 2-(Tetrahydro-2H-pyran-4-yloxy)-5-(2-{[6-(1H-1,2,4-triazol-1-yl)pyridin-3-yl]amino}pyrimidin-4-yl)benzonitrile]: the IC50 is less than 5 nM on IKKε (setting [4]), less than 5 nM on IKKε (setting [2]) and 100 to 250 nM in assay [1].
In the case of `Cn1cc(-c2ccc(Nc3nccc(-c4ccc(OC5CCOCC5)c(C#N)c4)n3)cn2)cn1` [Example Compound 77, 5-(2-{[6-(1-Methyl-1H-pyrazol-4-yl)pyridin-3-yl]amino}pyrimidin-4-yl)-2-(tetrahydro-2H-pyran-4-yloxy)benzonitrile], the IC50 is less than 5 nM at IKKε (setting [2]) and less than 100 nM in assay [1].
For `N#Cc1cc(-c2ccnc(Nc3ccc(-c4cn[nH]c4)nc3)n2)ccc1OC1CCOCC1` [Example Compound 78, 5-(2-{[6-(1H-Pyrazol-4-yl)pyridin-3-yl]amino}pyrimidin-4-yl)-2-(tetrahydro-2H-pyran-4-yloxy)benzonitrile], in that order: less than 5 nM and less than 100 nM.
On to `N#Cc1cc(-c2ccnc(Nc3ccc(-c4cccnc4)nc3)n2)ccc1OC1CCOCC1` [Example Compound 79, 5-[2-(2,3′-Bipyridin-5-ylamino)pyrimidin-4-yl]-2-(tetrahydro-2H-pyran-4-yloxy)benzonitrile], for which the 50% inhibitory concentration (IC50) at IKKε (setting [4]) was less than 5 nM; on IKKε (setting [2]), less than 5 nM; in assay [1] (setting [3]), 250 to 1000 nM.
For `COCCNc1ncc(-c2ccc(Nc3nccc(-c4ccc(OC5CCOCC5)c(C#N)c4)n3)cn2)cn1` [Example Compound 80, 5-{2-[(6-{2-[(2-Methoxyethyl)amino]pyrimidin-5-yl}pyridin-3-yl)amino]pyrimidin-4-yl}-2-(tetrahydro-2H-pyran-4-yloxy)benzonitrile], the IC50 at IKKε (setting [2]) is less than 5 nM; in assay [1] it was less than 100 nM.
Take `Cn1cc(-c2cc(Nc3nccc(-c4ccc(OC5CCOCC5)c(C#N)c4)n3)ccn2)cn1` [Example Compound 82, 5-(2-{[2-(1-Methyl-1H-pyrazol-4-yl)pyridin-4-yl]amino}pyrimidin-4-yl)-2-(tetrahydro-2H-pyran-4-yloxy)benzonitrile]: the figures for the IC50 (on IKKε (setting [4]); on IKKε (setting [2]); in assay [1]) were less than 5 nM, less than 5 nM and less than 100 nM, respectively.
For the compound `N#Cc1cc(-c2ccnc(Nc3ccnc(-c4cn[nH]c4)c3)n2)ccc1OC1CCOCC1` [Example Compound 83, 5-(2-{[2-(1H-Pyrazol-4-yl)pyridin-4-yl]amino}pyrimidin-4-yl)-2-(tetrahydro-2H-pyran-4-yloxy)benzonitrile], the IC50 on IKKε (setting [4]) is less than 5 nM; at IKKε (setting [2]) it was less than 5 nM; in assay [1], 100 to 250 nM.
With `CN(C)C1CCN(c2ccc(Nc3nccc(-c4ccc(OC5CCOCC5)c(C#N)c4)n3)nn2)C1` (stereo not shown) [Example Compound 87, 5-[2-({6-[3-(Dimethylamino)pyrrolidin-1-yl]pyridazin-3-yl}amino)pyrimidin-4-yl]-2-(tetrahydro-2H-pyran-4-yloxy)benzonitrile], the figures for the IC50 (at IKKε (setting [4]); on IKKε (setting [2]); in assay [1] (setting [3])) were less than 5 nM, less than 5 nM and 250 to 1000 nM, respectively.
In the case of `N#Cc1cc(-c2ccnc(Nc3ccc(N4CCOCC4)nn3)n2)ccc1OC1CCOCC1` [Example Compound 88, 5-(2-{[6-(Morpholin-4-yl)pyridazin-3-yl]amino}pyrimidin-4-yl)-2-(tetrahydro-2H-pyran-4-yloxy)benzonitrile], the IC50 at IKKε (setting [4]) was less than 5 nM; on IKKε (setting [2]), less than 5 nM; in assay [1] (setting [3]), 250 to 1000 nM.
`N#Cc1cc(-c2ccnc(Nc3ccc(/C=C/CN4CCOCC4)nc3)n2)ccc1OC1CCOCC1` [Example Compound 94, 5-[2-({6-[(1E)-3-(Morpholin-4-yl)prop-1-en-1-yl]pyridin-3-yl}amino)pyrimidin-4-yl]-2-(tetrahydro-2H-pyran-4-yloxy)benzonitrile]: the IC50 on IKKε (setting [2]) was less than 5 nM; in assay [1], 100 to 250 nM.
